Structures are written as SMILES.

Holding throughout (format): functional, cell-based
One assay concerns HeLa. The experiment in a line: Cytotoxicity against Homo sapiens (human) HeLa cells assessed as cell viability after 72 hr by MTT assay. On the technique in general: Tetrazolium assays rely on reduction of a dye to a coloured formazan, in cell work by metabolically active cells.
Assay [1] is described as follows: Cytotoxicity against Homo sapiens (human) MGC7901 cells assessed as cell viability after 72 hr by MTT assay.
Assay [2] in a line: Cytotoxicity against Homo sapiens (human) SMMC-7404 cells assessed as cell viability after 72 hr by MTT assay.

As to `CC(C)CCC[C@@H](C)[C@H]1CC[C@H]2[C@@H]3C/C(=N/O)C4=C[C@@H](OS(=O)(=O)[O-])CC[C@]4(C)[C@H]3CC[C@]12C.[Na+]`, the half-inhibitory concentration (IC50) with HeLa was 25.3 µM; in assay [1], above 100 µM; in assay [2], 62.2 µM.

With `CC(C)CCC[C@@H](C)[C@H]1CC[C@H]2[C@@H]3C/C(=N/O)C4C[C@@H](OS(=O)(=O)[O-])CC[C@]4(C)[C@H]3CC[C@]12C.[Na+]` (some centres not stated), the 50% inhibitory concentration (IC50) in the assay on HeLa was determined as 9.6 µM; in assay [1], 6.5 µM; in assay [2] it was 12.9 µM.

In the case of `CC[C@H](/C=C/[C@@H](C)[C@H]1CC[C@H]2[C@@H]3C/C(=N/O)C4C[C@@H](OS(=O)(=O)[O-])CC[C@]4(C)[C@H]3CC[C@]12C)C(C)C.[Na+]` (some centres not stated), the IC50 in the assay with HeLa is 14.3 µM; in assay [1], 27.7 µM; in assay [2], above 100 µM.

Regarding `CC(C)CCC[C@@H](C)[C@H]1CC[C@H]2[C@@H]3C[C@H](OS(=O)(=O)[O-])C4C/C(=N/O)CC[C@]4(C)[C@H]3CC[C@]12C.[Na+]` (some centres not stated), the concentration for half-maximal inhibition (IC50) turned out to be 12.5 µM with HeLa, 33.3 µM in assay [1] and 10.2 µM in assay [2].

Usually IC50 stands for the concentration that inhibits the measured activity by half.

The values above are taken from ChEMBL document CHEMBL3044644, “Syntheses and antiproliferative activity of some sulfated hydroximinosterols” (Med Chem Res, 2013).
